Biological target: T1, Na ^+/H ^+-Exchangers von Kaninchenerythrocyten (Oryctolagus cuniculus, UniProt P23791)
T1 construct: den Na ^+-Influx in die Erythrocyten via Na ^+/H ^+-Austausch flammenphotometrisch bestimmen zu können; from tissue; host or cells: Erythrocytes in whole blood from the ear arteries of cholesterol-fed New Zealand White rabbits
Test: Inhibition of the Na+/H+ exchanger of rabbit erythrocytes (amiloride-sensitive sodium influx, flame photometry)
Type: cell-based, Kaninchen
Conditions: hyperosmolar salt-sucrose medium, pH 7,4, 37°C, read-out: IC50 Inhibition des Na ^+/H ^+ -Exchangers
Source text: Inhibition des Na ^+/H ^+-Exchangers von Kaninchenerythrocyten Weiße Neuseeland-Kaninchen (Ivanovas) erhielten eine Standard-Diät mit […] für sechs Wochen, um den Na ^+ /H ^+-Austausch zu aktivieren und so den Na ^+-Influx in die Erythrocyten via Na ^+/H ^+-Austausch flammenphotometrisch bestimmen zu können. Das Blut wurde den Ohrarterien entnommen und durch 25 IE Kalium-Heparin ungerinnbar gemacht. Ein Teil jeder Probe wurde zur Doppelbestimmung des Hämatokrits durch Zentrifugieren benutzt. Aliquots von jeweils 100 µl dienten zur Messung des Na ^+-Ausgangsgehalts der Erythrocyten.
Um den Amilorid-sensitiven Natrium-Influx zu bestimmen, wurden 100 µl jeder Blutprobe in jeweils 5 ml eines hyperosmolaren Salz-Sucrose-Mediums (mmol/l: 140 NaCl, 3 KCl, 150 Sucrose, 0,1 Ouabain, 20 Tris-hydroxymethylaminomethan) bei pH 7,4 und 37°C inkubiert. Die Erythrocyten wurden danach dreimal mit eiskalter MgCl2-Ouabain-Lösung (mmol/l: 112 MgCl2, 0,1 Ouabain) gewaschen und in 2,0 ml destilliertem Wasser hämolysiert. Der intrazelluläre Natriumgehalt wurde flammenphotometrisch bestimmt.
Der Na ^+-Nettoinflux wurde aus der Differenz zwischen Natrium-Ausgangswerten und dem Natriumgehalt der Erythrocyten nach Inkubation errechnet. Der Amiloridhemmbare Natrium-Influx ergab sich aus der Differenz des Natriumgehalts der Erythrocyten nach Inkubation mit und ohne Amilorid 3 x 10^-4 mol/l. Auf diese Weise wurde auch bei den erfindungsgemäßen Verbindungen verfahren.

T1 sequence (P23791 whole entry): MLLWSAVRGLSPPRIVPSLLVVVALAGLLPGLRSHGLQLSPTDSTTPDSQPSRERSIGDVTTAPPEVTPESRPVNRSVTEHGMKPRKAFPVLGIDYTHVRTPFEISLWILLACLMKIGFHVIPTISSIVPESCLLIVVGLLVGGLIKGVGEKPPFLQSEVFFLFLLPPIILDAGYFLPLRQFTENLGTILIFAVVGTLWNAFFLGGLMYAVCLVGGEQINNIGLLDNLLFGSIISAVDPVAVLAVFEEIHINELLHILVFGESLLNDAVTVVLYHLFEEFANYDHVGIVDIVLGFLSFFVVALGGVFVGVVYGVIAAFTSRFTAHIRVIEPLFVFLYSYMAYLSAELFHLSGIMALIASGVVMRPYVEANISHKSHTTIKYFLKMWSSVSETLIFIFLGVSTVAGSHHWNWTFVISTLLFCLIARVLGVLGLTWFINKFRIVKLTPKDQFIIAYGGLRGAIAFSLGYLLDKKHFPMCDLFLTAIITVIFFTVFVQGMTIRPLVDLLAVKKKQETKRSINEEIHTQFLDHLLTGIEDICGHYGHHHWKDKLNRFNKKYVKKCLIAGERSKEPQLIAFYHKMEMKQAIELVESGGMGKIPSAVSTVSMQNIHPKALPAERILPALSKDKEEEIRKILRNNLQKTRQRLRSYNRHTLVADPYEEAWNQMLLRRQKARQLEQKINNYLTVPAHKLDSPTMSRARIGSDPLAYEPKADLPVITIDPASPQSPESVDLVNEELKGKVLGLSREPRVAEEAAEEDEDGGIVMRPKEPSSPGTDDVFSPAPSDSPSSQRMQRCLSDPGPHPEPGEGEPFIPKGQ

Row | IC50 [nM] | Compound
1 | 1500 | NC(N)=NC(=O)c1ccc(-c2cccc(C(=O)N=C(N)N)c2)cc1 [Beispiel 1, 3-(4-Guanidinocarbonyl)phenyl-benzoylguanidin]
2 | 1500 | 4-(4-Guanidinocarbonyl)phenylsulfamoyl-benzoylguanidin [Beispiel 3]
3 | 5000 | NC(N)=NC(=O)c1ccc(-c2ccccc2C(=O)N=C(N)N)cc1 [Beispiel 2, 2-(4-Guanidinocarbonyl)phenyl-benzoylguanidin]

Row | Compound | IC50 [nM]
4 | NC(N)=NC(=O)c1ccc(-c2ccc(C(=O)N=C(N)N)cc2)cc1 [Beispiel 4, Biphenyl-4,4'-dicarbonsäure-diguanidid] | 2000
5 | NC(N)=NC(=O)c1ccc(S(=O)(=O)NC(=O)Nc2cccc(C(=O)N=C(N)N)c2)cc1 [Beispiel 5, 4[3-(Guanidinocarbonyl)phenylaminocarbonylaminosulfonyl]-benzoylguanidin] | 10000
